Measured values published in patent publication US20130011376A1, “Methods for Enhancing Natural Killer Cell Proliferation and Activity” (GAMIDA CELL LTD., priority 2009, published 2013).

Legend:
Assay type in all cases: cell-based, human
[1] = system: cord-blood derived NK cells; test: Expression of CXCR4, CD49e and CD62L receptors on cultured cord blood NK cells (FACS); conditions: 2.5 or 5 mM nicotinamide, three weeks, vs cytokines only
Experimental: (§1) 2. Purified CD56+ or CD56+CD3− cells from total nuclear or mononuclear cells or from the fraction depleted from CD34+ or CD133+ cells were cultured in culture bags, T-Flasks or 24 well plates at a concentration of 1-100×10^4 cells/ml in MEMα/10% FCS or CellGro SCGM (Cell Genix)/5% Human Serum/LiforCell® FBS Replacement (Lifeblood Products) containing the following human recombinant cytokines:, interleukin-2 (IL-2) (5-50 ng/ml), interleukin-15 (IL-15), FLT-3 or SCF or FLT3 and SCF or IL-2 and IL-15 or IL-2 only (Perpo Tech, Inc., Rocky Hill, N.J., USA), with or without nicotinamide, and incubated at 37° C. in a humidified atmosphere of 5% CO2 in air. The cultures were topped up once or twice a week with the same volume of fresh medium containing growth factors with or without nicotinamide. Eventually cultures can be supplemented once or several times a week with IL-2 and or IL-2 and IL-15. To estimate the number of cells in culture, cell samples were stained with trypan blue for counting. At various time points, samples were taken for FACS analysis to assay the relative fractions of NK cells, CD56+CD3−, CD56+CD3+, CD34+CD56+, CD56+CD16+ and/or CD56+ NKG2A cells.
(§2) The cells were washed with a PBS solution containing 1% BSA, and stained (at 4° C. for 30 min) with fluorescein isothiocyanate (FITC)- or phycoerythrin (PE)-conjugated antibodies or allophycocyanin (APC). The cells were then washed in the above buffer and analyzed using a FACScalibur® flow cytometer (Becton Dickinson, San Jose, Calif., USA). The cells were passed at a rate of up to 1000 cells/second, using a 488 nm or 661 nm argon laser beam as the light source for excitation. Emission of 10^4 cells was measured using logarithmic amplification, and analyzed using the CellQuest software (Becton Dickinson). Cells stained with FITC, PE and APC-conjugated isotype control antibodies were used to determine background fluorescence.

K562 target cells = test: Killing assay, NK cells expanded with irradiated feeder cells; conditions: 5:1, 2.5:1 and 1:1 NK cells per target cell
Experimental: “Killing” assay: NK cells (effectors cells=E) are combined with K562 or BL2 (target cells=T), or bi-phenotypic leukemia cells at different E to T ratio (E:T). BL2 or K562, or bi-phenotypic leukemia target cells in PBS were labeled with 1 ng/ml CFSE (Invitrogen) for 15 min at 37° C. Calf Serum was added to the cells for 15 minutes, the cells were then washed and resuspended in RPMI medium. 100 μL of bi-phenotypic leukemia, BL2 or K562 cells were placed in a 96 round bottom plate at a concentration of 5×10^3 cells per well. 100 μL of non-stained NK cells were added to the bi-phenotypic leukemia, BL2 or K562 cells at a E:T ratio of 1:1, 2.5:1, 5:1, 10:1 or 20:1 (5×10^3, 1.25×10^4, 2.5×10^4, 5×10^4 and 1×10^5 cells/well, respectively, as indicated). Between 2-48 hours later. Killing of target cells in cell lines such as K562 and BL-2 was determined by FACS as a percentage propidium-iodine (PI)-positive (dead) CFSE-labeled cells. Killing of the primary leukemia cells was determined by counting with the FACS the number of CFSE stained cells that remained in the culture after their culture with the NK cells. A lower number of CFSE+ cells is indicative of higher level of killing.
Peripheral blood-derived mononuclear cell fractions were CD3 depleted and then selected for CD56+ cells by immunobead purification. […]

[2] = system: bone marrow derived CD56+ cells; test: Proliferation and subsets of bone marrow derived CD56+ cells in culture
Experimental: Bone marrow (BM) and peripheral blood (PB) cells were layered on a Ficoll-Hypaque gradient (1.077 g/mL; Sigma), and centrifuged at 800×g for 30 min. The mononuclear cells in the interface layer were collected and washed three times in phosphate-buffered saline (PBS) (Biological Industries, Israel) containing 0.5% HSA.
Cord blood (CB), bone marrow (BM) or peripheral blood (PB) cells were layered on a Ficoll-Hypaque gradient (1.077 g/mL; Sigma), and centrifuged at 800×g for 30 minutes for separation of the mononuclear cells. The cells in the interface layer were collected and washed three times in phosphate-buffered saline (PBS) (Biological Industries, Israel) containing 0.5% HSA. To purify the CD56+ cells, the mononuclear cell fraction was subjected to two cycles of immunomagnetic bead separation, using a “MiniMACS or CliniMACS CD56 progenitor cell isolation kit” (Miltenyi Biotec Bergisch, Gladbach, Germany), according to the manufacturer's recommendations. Briefly, CD56+ cells are reacted with CD56+ specific magnetic immunobeads, separated and with a magnetic separator, and purified from unbound cells by washing. The purity of the CD56+ population thus obtained is approximately 92%, as evaluated by flow cytometry.
as §1
To determine total number of cells on day 7, 14 and 21, the cell count/ml was multiplied by the volume of the culture medium. In order to determine the number of NK cells in culture, the total number of cells in culture was multiplied by the percent of CD56+/CD3− cells measured with the FACS on days 7, 14 or 21. To measure fold expansion, total number of NK cells on days 7, 14 and 21 was divided by total number of NK cells seeded in culture on day-0.
as §2

[3] = 1 mM, 2.5 mM and 5 mM nicotinamide, 7 days

In the case of `NC(=O)c1cccnc1` [nicotinamide], the “expression of CD49e (adhesion receptor)” value [1] is reported as “elevated expression”, the “expression of CD62L (trafficking receptor)” value [1] is reported as “strongly enhanced expression” and the “expression of CXCR4 (migratory receptor)” value [1] is reported as “strongly enhanced expression”. For the same compound, the ex-vivo killing potential (K562 target cells) was “increased cytotoxic capability”, the “proliferation of CD56+CD3+ NKT cells” value [2, 3] was “decreased proliferation” and the “proliferation of the CD56+CD3- NK cell subset” value [2, 3] was “enhancement of proliferation”. For the same compound, the “proliferation of CD56+CD16+ NK cells” value ([2]; 2.5 mM and 5 mM nicotinamide, 7 days) was “most enhanced”, the “increase of NK cell proliferation between 14 and 21 days” value ([2]; 2.5 mM nicotinamide) was 50% and the “fraction of NK cells displaying the CD56+CD16+ phenotype vs cytokines alone” value ([2]; 2.5 mM nicotinamide, 14 and 21 days) was “significant increase”. The “proliferation of NK cells (fold increase)” value ([2]; 2.5 mM nicotinamide, 14 days) was 8 fold increase, the “proliferation of NK cells (fold increase)” value ([2]; 2.5 mM nicotinamide, 21 days) was 12 fold increase and the “CD56+CD3- NK cells among cultured cells (dominance over CD56+CD3+ NKT cells)” value ([2]; nicotinamide treated cultures, 21 days) was “greater than 80%”.
